In ChEMBL document CHEMBL1201862, “PubChem BioAssay data set” (2004):
Calls of active or inactive are those of the source.

Key:
[1] = growth suppression of beta-catenin-knockout colon cells, dose response, cell-based, HCT116, human colon tumor (AID 1045); assay type: functional;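 also: HCT116 colon tumor cells with beta catenin knocked out; cells exposed to compound for 60 hours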
[2] = growth suppression of PTEN-null colon cells, dose response, cell-based, HCT116 PTEN knockout (AID 1047); assay type: functional;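 also: HCT116 colon tumor cells with PTEN knocked out; cells exposed to compound for 60 hours before readout; potency for loss of cell viability measured by luminescence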
[3] = target: T1, Calpain-2 catalytic subunit (Sus scrofa, UniProt P43367); test: pig calpain II inhibitor potency, dose response, biochemical, fluorogenic peptide substrate (AID 1420); assay type: functional
T1 sequence (P43367 whole entry): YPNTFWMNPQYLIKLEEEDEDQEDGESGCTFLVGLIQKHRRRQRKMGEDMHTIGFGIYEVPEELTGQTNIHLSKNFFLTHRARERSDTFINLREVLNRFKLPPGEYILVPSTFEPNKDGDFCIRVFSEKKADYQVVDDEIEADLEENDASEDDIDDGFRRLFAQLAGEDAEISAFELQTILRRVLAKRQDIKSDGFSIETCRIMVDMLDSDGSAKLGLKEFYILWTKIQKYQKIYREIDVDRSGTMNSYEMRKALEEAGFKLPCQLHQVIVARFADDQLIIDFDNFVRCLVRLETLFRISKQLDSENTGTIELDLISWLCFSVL

[4] = target: Cytochrome P450 2D6 (Homo sapiens, UniProt P10635);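 also: CYP2D6 member of a cytochrome P450 panel assay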
[5] = Shn3 3'UTR reporter inhibitors, dose response, cell-based, Clone20 osteoblasts, firefly luciferase, cherry-picked (AID 624132); assay type: functional;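 also: firefly luciferase luminescence from reporter carrying the Shn3 3'UTR in osteoblasts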
[6] = HepG2 cell cytotoxicity, dose response, cytotoxicity control for Shn3 inhibitor project, CellTiter-Glo, cherry-picked (AID 624134); assay type: functional, cell-based
[7] = target: T2, Heat shock factor protein 1 (Mus musculus, UniProt P38532); test: inhibition of MG132-induced HSE-luciferase signal, confirmation, cell-based, NIH3T3, luminescence, dose retest (AID 2382); assay type: functional;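 also: NIH3T3 fibroblasts with HSF1-driven luciferase reporter stressed by proteasome inhibitor MG132; luminescence from HSF1-driven luciferase expression after 8 hours of MG132 stress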
T2 sequence (P38532 whole entry): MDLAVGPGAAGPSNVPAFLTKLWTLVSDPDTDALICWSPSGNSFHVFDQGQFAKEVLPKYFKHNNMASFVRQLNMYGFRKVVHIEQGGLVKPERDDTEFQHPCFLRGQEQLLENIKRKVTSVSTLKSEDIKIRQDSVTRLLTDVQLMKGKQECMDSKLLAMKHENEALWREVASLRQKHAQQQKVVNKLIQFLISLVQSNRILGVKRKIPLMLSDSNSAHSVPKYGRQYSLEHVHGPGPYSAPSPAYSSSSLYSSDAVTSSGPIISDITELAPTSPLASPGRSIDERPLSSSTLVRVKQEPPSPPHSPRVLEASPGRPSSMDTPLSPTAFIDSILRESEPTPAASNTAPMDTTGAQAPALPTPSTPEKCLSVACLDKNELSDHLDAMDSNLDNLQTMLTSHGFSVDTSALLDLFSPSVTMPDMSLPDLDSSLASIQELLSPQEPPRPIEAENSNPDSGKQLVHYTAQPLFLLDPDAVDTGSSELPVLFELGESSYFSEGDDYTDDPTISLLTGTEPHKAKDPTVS

[8] = control 3'UTR Renilla luciferase suppression, dose response, counter-screen for Shn3 inhibitor project, cell-based, Clone20-Shn3RL, cherry-picked (AID 624133); assay type: functional
[9] = target: Prothrombin (Homo sapiens, UniProt P00734); test: Thrombin 1536 HTS Dose Response Confirmation. [Related pubchem assays: 1046 (Thrombin 1536 HTS; hits were confirmed in this assay)]; assay type: functional
[10] = tested on: INS1; test: beta cell apoptosis inhibitors, cytokine rescue, dose response, luminescence, retest (AID 449756); assay type: functional, cell-based; settings: Rattus norvegicus;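 also: cell death triggered by IL-1 beta plus TNF-alpha plus IFN-gamma mixture; protective hits raise ATP signal compared with cytokine alone wells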
[11] = target: Nonstructural protein 1 (Influenza A virus, UniProt Q194T2); assay type: functional, Influenza A virus (A/California/07/2009(H1N1))
[12] = cells; assay type: functional, cell-based
[13] = cells; assay type: functional, cell-based; remark: listed apart in the source
[14] = target: Cytochrome P450 2C9 (Homo sapiens, UniProt P11712)
[15] = HEp-2 cell cytotoxicity, dose response, cytotoxicity control for RSV inhibitor project, HTS (AID 2410); assay type: functional; settings: human respiratory syncytial virus
[16] = target: Large T antigen (Simian virus 40, UniProt P03070); assay type: functional, Betapolyomavirus macacae;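 also: Confirmatory-stage PubChem screen for compounds that inhibit SV40 T antigen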
Sequence of Large T antigen (P03070 whole entry): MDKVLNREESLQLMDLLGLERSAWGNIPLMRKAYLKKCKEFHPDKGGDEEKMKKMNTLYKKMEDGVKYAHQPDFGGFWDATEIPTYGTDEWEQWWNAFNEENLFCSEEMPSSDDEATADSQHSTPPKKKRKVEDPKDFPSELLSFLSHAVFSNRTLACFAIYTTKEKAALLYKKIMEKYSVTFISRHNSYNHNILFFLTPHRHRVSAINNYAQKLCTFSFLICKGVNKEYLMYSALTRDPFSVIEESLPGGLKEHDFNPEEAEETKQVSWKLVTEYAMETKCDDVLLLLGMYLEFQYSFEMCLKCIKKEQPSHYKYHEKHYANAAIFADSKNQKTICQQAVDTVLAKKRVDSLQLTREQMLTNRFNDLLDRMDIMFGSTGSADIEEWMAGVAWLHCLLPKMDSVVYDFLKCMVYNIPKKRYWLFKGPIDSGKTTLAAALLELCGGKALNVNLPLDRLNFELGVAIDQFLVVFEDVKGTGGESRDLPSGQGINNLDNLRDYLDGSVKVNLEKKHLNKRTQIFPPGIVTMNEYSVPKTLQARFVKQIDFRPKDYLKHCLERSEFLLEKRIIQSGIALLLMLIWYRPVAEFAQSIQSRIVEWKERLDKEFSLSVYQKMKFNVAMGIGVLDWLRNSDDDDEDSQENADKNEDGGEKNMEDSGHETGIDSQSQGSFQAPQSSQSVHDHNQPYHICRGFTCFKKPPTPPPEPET

Sequence of Cytochrome P450 2D6 (P10635 whole entry): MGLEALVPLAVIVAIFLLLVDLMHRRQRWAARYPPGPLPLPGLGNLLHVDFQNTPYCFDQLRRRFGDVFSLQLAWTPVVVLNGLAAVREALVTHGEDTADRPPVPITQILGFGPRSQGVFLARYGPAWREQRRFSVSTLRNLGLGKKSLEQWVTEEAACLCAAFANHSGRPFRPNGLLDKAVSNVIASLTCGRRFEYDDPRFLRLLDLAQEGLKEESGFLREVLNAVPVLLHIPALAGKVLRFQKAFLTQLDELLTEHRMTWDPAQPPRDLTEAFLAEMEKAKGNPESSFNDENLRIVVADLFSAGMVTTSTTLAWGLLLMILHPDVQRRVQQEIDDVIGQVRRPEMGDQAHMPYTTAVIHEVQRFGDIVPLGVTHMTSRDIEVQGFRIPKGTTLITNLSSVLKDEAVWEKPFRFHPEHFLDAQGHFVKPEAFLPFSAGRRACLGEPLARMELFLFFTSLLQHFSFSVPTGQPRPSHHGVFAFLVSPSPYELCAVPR
Sequence of Cytochrome P450 2C9 (P11712 whole entry): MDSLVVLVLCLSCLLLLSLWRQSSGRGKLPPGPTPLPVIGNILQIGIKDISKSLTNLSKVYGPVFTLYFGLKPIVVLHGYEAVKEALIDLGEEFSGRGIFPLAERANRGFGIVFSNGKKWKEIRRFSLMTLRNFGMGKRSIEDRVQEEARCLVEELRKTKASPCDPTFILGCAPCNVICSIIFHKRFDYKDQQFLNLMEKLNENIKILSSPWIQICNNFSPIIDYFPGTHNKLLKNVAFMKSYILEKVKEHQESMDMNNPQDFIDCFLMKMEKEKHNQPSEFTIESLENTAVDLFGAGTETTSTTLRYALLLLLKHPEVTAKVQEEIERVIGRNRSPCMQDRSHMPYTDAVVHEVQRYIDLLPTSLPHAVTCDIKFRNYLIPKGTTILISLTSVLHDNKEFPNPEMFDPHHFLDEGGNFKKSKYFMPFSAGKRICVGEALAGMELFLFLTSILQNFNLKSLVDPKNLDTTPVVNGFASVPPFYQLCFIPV
Sequence of Nonstructural protein 1 (Q194T2 whole entry): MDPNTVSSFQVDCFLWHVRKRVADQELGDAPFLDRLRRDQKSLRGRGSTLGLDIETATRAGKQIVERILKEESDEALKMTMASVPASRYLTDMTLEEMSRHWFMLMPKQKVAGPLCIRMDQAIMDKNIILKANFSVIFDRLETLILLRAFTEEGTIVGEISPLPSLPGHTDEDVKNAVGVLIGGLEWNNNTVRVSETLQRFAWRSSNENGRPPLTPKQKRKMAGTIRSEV

Compound: N#Cc1ccc(/C=C/C(=O)c2ccco2)cc1
- EC50 [1]: 17.2 µM (active)
- EC50 [2]: 16.6 µM (active)

Compound: Cc1cccc(N/C=C/C(=C(C#N)C#N)N(C)C)c1
- IC50 [3]: 15.6 µM (not active)

Compound: O=C(CCN1C(=O)c2ccccc2C1=O)NC(=S)Nc1cccc(Cl)c1
- AC50 [4]: 0.0447 µM (inconclusive)

Compound: CCOC(=O)c1c(CSCc2ccccc2)oc2ccc(O)c(CN(C)C)c12
- AC50 [5]: 9.79 µM (active)
- AC50 [6]: 22.2 µM (active)
- EC50 [7]: > 195 µM (not active)
- AC50 [8]: 10.7 µM (active)

Compound: Cc1ccc(S(=O)(=O)CC(=O)Nc2c(C)n(C)n(-c3ccccc3)c2=O)cc1
- IC50 [9]: 3.58 µM (active)

Compound: COc1cnc(-c2ccccn2)nc1N(C)C
- AC50 [10]: 8.4 µM (active)
- IC50 [11]: 1.92 µM (active)
- EC50 [12]: 214 µM (active)
- EC50 [13]: 8.34 µM (active)

Compound: CCn1c(-c2ccccc2Cl)nn(CC(=O)Nc2cc(Cl)ccc2Cl)c1=S
- AC50 [4]: 25.1 µM (inconclusive)
- AC50 [14]: 25.1 µM (inconclusive)

Compound: O=C1OC(Nc2ccc(F)c([N+](=O)[O-])c2)c2ccccc21 (stereo unspecified)
- IC50 [9]: > 50 µM (not active)

Compound: CCCC(=O)n1nc(-c2ccco2)nc1N
- IC50 [9]: 1.28 µM (active)

Compound: COc1ccc(C(C)C)cc1S(=O)(=O)Nc1ccncc1
- IC50 [9]: > 50 µM (not active)

Compound: CCC(=O)Nc1ccc(C(=O)CSc2nc3ccccc3cc2CC)cc1
- IC50 [9]: > 50 µM (not active)

Compound: Cn1nc(-c2ccc(Cl)cc2)c2cc(C(=O)N3CCN(c4ccccn4)CC3)sc21
- AC50 [5]: 4.02 µM (active)
- CC50 [15]: 3.7 µM (active)
- AC50 [6]: > 70 µM (inactive)
- AC50 [8]: 28.6 µM (active)

Compound: O=C(COC(=O)C12CC3CC(CC(O)(C3)C1)C2)NCCc1ccc(Cl)cc1
- IC50 [9]: > 50 µM (not active)

Compound: COc1ccc(-n2c(=O)c3c4c(sc3n3c(=S)[nH]nc23)CCC4)cc1
- IC50 [16]: 20.4 µM (active)

Compound: CC(C)Cn1c(N)c(C(=O)COC(=O)c2ccc(F)cc2)c(=O)n(C)c1=O
- IC50 [3]: 4.8 µM (not active)
